Results taken from patent US6828450B2, “Triptycene analogs” (Kansas State University Research Foundation, priority 2000, dated 2004).
Where “and” joins values, the source holds several entries; their conditions need not be identical. Equal values may be shown once. Read-outs that look alike come from different tables or passages of the source.

Key:
L1210 cells [1] = experiment: L1210 tumor cell proliferation assay (Coulter counter); conditions: for inhibition at 0.041 µM: read-out: % inhibition of L1210 cell proliferation; for IC50: read-out: IC50, inhibition of L1210 cell proliferation; for concentration giving almost total (maximal) inhibition of proliferation and viability: growth and viability
Experimental: FIG. 1. […] For tumor cell growth and viability, L1210 cells were respectively seeded in triplicate at initial densities of 1×10^4 and 1.11×10^4 cells/0.5 ml/well in RPMI 1640 medium containing 7.5% FCS and penicillin (100 IU/ml)-streptomycin (100 μg/ml), and grown for 4 days in the presence or absence (control) of 256 nM concentrations of the indicated compounds in a humidified incubator at 37° C. with 5% CO2 in air. Cell density was monitored using a Coulter counter. […] The ability of viable cells/0.5 ml to bioreduce 0.1 ml of MTS:PMS (20:1) reagent over a 3-h incubation period at 37° C. was assessed by measuring the absorbamce of the water-soluble formazan products at A490 nm.
FIG. 3. […] The protocol of the experiment was identical to that of FIG. 1. […] Drug concentrations are plotted on a logarithmic scale.
TT0 was purchased from Aldrich (Milwaukee, Wis.). All solutions of synthetic TTs and tricyclic pyrone H10, vincristine (VCR; a gift from Lilly Researeh Laboratories, Indianapolis, Ind.) and camptothecin (CPT; from Sigma Chemical Co., St Louis, Mo.) were dissolved and diluted in dimethyl sulfoxide (DMSO), whereas daunomycin (DAU) (from Sigma) solutions were prepared in 0.1 M potassium phosphate buffer, pH 7.4, containing 0.9% NaCl. Suspension cultures of murine L1210 lymphocytic leukemia cells (American Type Culture Collection, Rockville, Md.) were maintained in continuous exponential growth by twice-a-week passage in RPMI 1640 medium supplemented with 7.5% fortified bovine calf serum (FCS; HyClone Laboratories, Logan, Utah) and penicillin (100 IU/ml)-streptomycin (100 μg/ml), and incubated in the presence or absence of drugs at 37° C. in a humidified atmosphere containing 5% CO2. […] Control cells incubated in the absence of drugs were similarly treated with vehicle only and, in every experiment, all incubates received the same volume of solvent. For drug removal, incubates were spun at 200×g for 10 min, drug-containing supernatants were discarded, and intact cells were washed thrice with 1 ml of the above RPMI 1640 culture medium and resuspended in 0.5 ml of fresh medium for further incubation.
For tumor cell growth, L1210 cells were resuspended in fresh FCS-containing RPMI 1640 medium, plated at an initial density of 1×10^4 cells/0.5 ml, and incubated in 48-well Costar cell culture plates (Costar, Cambridge, Mass.). Except when otherwise specified, cells were grown for 4 days in the presence or absence of drugs and their density was monitored every 24 h using a Coulter counter (Coulter Electronics, Luton Beds, UK).

L1210 cells [2] = experiment: DNA synthesis (3H-thymidine incorporation) in L1210 cells; type: cell-based, murine; conditions: for concentration at which the drug becomes effective against DNA synthesis: 2-h treatment
Experimental: FIG. 9. […] Cells (1.14×10^6/0.5 ml of RPMI 1640 medium) were incubated at 37° C. for 90 min in the presence or absence (control) of the indicated concentrations of drugs, which are plotted on a logarithmic scale, and then pulse-labeled for an additional 30 min to determine the rate of ^3H-thymidine incorporation into DNA.
FIG. 11. […] The cellular uptake of ^3H-thymidine (striped) and the rate of ^3H-thymidine incorporation into DNA (open) were determined in cells (1.38×10^6/0.5 ml of RPMI 1640 medium) respectively preincubated at 37° C. for 15 or 90 min in the presence or absence (control) of 7 μM concentrations of the indicated compounds. For the cellular transport of nucleosides, preincubated cells were then exposed to 1 μCi of ^3H-thymidine for 30 sec at 37° C. […] For DNA synthesis, preincubated cells were then pulse-labeled with 1 μCi of ^3H-thymidine for an additional 30 min at 37° C.
FIG. 12. […] The cellular uptake of ^3H-thymidine (striped) and the rate of ^3H-thymidine incorporation into DNA (open) were determined in cells (1.64×10^6/0.5 ml of RPMI 1640 medium) respectively preincubated at 37° C. for 15 or 60 min in the presence or absence (control) of 10 and 25 μM TT2 or 25 μM H10. […] After preincubation, vehicle-treated controls were similarly spun and washed. For the cellular transport of nucleosides, preincubated cells were then exposed, in the presence (+) or absence (−) of TT2 or H10, to 1 μCi of ^3H-thymidine for 30 sec at 37° C. […] For DNA synthesis, preincubated cells were then pulse-labeled with 1 μCi of ^3H-thymidine for an additional 30 min at 37° C. in the presence (+) or absence (−) of TT2 or H10. […] Bars: means±SD (n=3).
For nucleic acid and protein syntheses, L1210 cells were resuspended in fresh FCS-containing RPMI 1640 medium at a density of about 1.1-1.6×10^6 cells/0.5 ml. To estimate the rate of DNA synthesis, HL-60-S, HL-60-RV and HL-60-R8 cells were resuspended in fresh FCS-containing RPMI 1640 medium at a density of 5×10^5 cells/0.5 ml.

## COc1cccc2c1C(=O)c1c(O)c3c(c(O)c1C2=O)C[C@@](O)(C(C)=O)C[C@@H]3O[C@H]1C[C@H](N)[C@H](O)[C@H](C)O1 [DAU, daunomycin, reference compound]
L1210 cells [1]; L1210, from IC50 values
  times DAU is more cytostatic than TT2: about 6 times
L1210 cells [1]; L1210, growth and viability, 4 days
  times DAU is more cytostatic/cytotoxic than TT2: 3.5-6 times
L1210 cells [1]; Mus musculus, L1210, 48 h
  inhibition at 0.041 µM: 42%
  IC50: 50 nM
L1210 cells [1]; Mus musculus, L1210, 96 h
  inhibition at 0.041 µM: 77%
  IC50: 25 nM
L1210 cells [1]; day 4
  concentration giving almost total (maximal) inhibition of proliferation and viability: 102 nM
L1210 cells [2]
  concentration at which the drug becomes effective against DNA synthesis: 0.256 µM
L1210 cells [2]; L1210, from IC50 values
  times DAU prevents DNA synthesis more effectively than TT2: about 6 times

## COC1=CC(=O)C2=C(C1=O)C1C3=C(C(=O)C=CC3=O)C2c2ccccc21 (stereo not drawn) [TT2, 2-Methoxy-9,10-dihydro-9,10-[1′,2′]benzenoanthracene-1,4,5,8-tetraone]
L1210 cells [1]
  times DAU is more cytostatic/cytotoxic than TT2: 3.5-6 times
L1210 cells [1]; 256 nM TT2, day 2
  % inhibition of L1210 cell proliferation: 44%
L1210 cells [1]; 256 nM, 4 days, 0.256 µM
  % inhibition of L1210 cell growth (cytostatic): 68%
L1210 cells [1]; day 4
  concentration giving almost total (maximal) inhibition of proliferation and viability: ≥ 640 nM
  IC50: 150 nM
L1210 cells [1]; day 2
  IC50: 300 nM
L1210 cells [2]; 10 μM TT2, 60-min preincubation
  % inhibition of DNA synthesis: 69%
L1210 cells [2]; 25 μM TT2, 2-h treatment
  effect on DNA synthesis: totally inhibited
L1210 cells [2]; 25 μM TT2, 60-min preincubation
  % inhibition of DNA synthesis: 97%
L1210 cells [2]
  concentration at which the drug becomes effective against DNA synthesis: greater than 1.6 μM
L1210 cells [2]; 10 and 25 μM TT2 or 25 μM H10, 60-min preincubation
  reversibility of the inhibition of DNA synthesis upon drug removal: irreversible
L1210 cells [2]; 90 min drug + 30 min pulse-labeling (2 h), read-out: IC50, inhibition of DNA synthesis in L1210 cells
  IC50: 6000 nM and ~6000 nM
L1210 cells [2]; L1210, after 2-3 h, IC50 values compared
  times TT2 inhibits DNA, RNA and protein syntheses less effectively than DAU: 3-6 times

## COC(=O)C1=C(C(=O)OC)C[C@H]2C(=O)C3=C(C(=O)[C@H]2C1)C1C2=C(C(=O)[C@H]4CC(C(=O)OC)=C(C(=O)OC)C[C@H]4C2=O)C3c2ccccc21 [TT4, (4aS*,7aR*,11aS*,14aR*)-Tetramethyl 1,4,4a,5,6,7,7a,8,11,11a,12,13,14,14a-tetradecahydro-5,7,12,14-tetraoxo-6,13-[1′,2′]benzenopentacene-2,3,9,10-tetracarboxylate]
L1210 cells [1]; 256 nM, 4 days
  inhibitory effect on L1210 cell growth: inactive
L1210 cells [2]; 7 μM, 2 h
  effect on DNA synthesis: alter neither

## COC(=O)C1=C(C(=O)OC)C[C@H]2[C@@H](C1)[C@@H](O)C1=C(C3C4=C(C1c1ccccc13)[C@@H](O)[C@H]1CC(C(=O)OC)=C(C(=O)OC)C[C@H]1[C@H]4O)[C@H]2O [TT12, (4aS*,5S*,7R*,12S*,14R*,7aR*,11aS*,14aR*)-Tetramethyl 1,4,4a,5,6,7,7a,8,11,11a,12,13,14,14a-tetradecahydro-5,7,12,14-tetrahydroxy-6,13-[1′,2′]benzenopentacene-2,3,9,10-tetracarboxylate]
L1210 cells [1]; 256 nM, 4 days
  inhibitory effect on L1210 cell growth: inactive
L1210 cells [2]; 7 μM, 2 h
  effect on DNA synthesis: alter neither

## COC1=C(Br)C(=O)C2=C(C1=O)C1C3=C(C(=O)C=C(N(C)C)C3=O)C2c2ccccc21 (stereo not drawn) [TT16, 2-Bromo-3-methoxy-6-(dimethylamino)-9,10-dihydro-9,10-[1′,2′]benzenoanthracene-1,4,5,8-tetraone]
L1210 cells [2]; FIG. 13
  potency on DNA synthesis compared with TT2: as potent as TT2
